The source of these data is patent publication US9540391B2, “Isomannide derivatives as inhibitors of soluble epoxide hydrolase” (SANOFI, priority 2013, dated 2017).

This assay deals with T1, recombinant sEH (Homo sapiens, UniProt P34913).
T1 construct: made in house; host or cells: Sf9 insect cells
T1 sequence (P34913 1-555): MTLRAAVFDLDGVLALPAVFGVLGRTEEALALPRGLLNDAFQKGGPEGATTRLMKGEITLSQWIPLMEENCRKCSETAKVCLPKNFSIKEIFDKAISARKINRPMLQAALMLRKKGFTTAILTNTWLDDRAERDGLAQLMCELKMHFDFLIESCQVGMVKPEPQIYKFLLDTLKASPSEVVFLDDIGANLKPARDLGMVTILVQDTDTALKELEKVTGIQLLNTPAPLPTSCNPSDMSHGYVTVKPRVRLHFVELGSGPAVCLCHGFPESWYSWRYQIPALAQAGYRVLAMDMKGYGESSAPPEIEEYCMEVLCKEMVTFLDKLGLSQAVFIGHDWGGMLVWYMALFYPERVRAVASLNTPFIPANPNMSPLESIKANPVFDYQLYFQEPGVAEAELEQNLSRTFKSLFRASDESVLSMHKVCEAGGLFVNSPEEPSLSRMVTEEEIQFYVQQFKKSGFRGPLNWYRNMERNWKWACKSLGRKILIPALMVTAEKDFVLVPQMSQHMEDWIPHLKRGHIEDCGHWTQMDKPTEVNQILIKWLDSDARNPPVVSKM
As to the kind of experiment: biochemical screening assay for inhibition of soluble epoxide hydrolase (fluorometric, Phome substrate). Put shortly: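 Reading fluorescence before substrate addition and after completion corrected for autofluorescence. Reaction: 5 μM Phome, 2 nM recombinant human sEH (Sf9-expressed), compound 0.0001–10 μM, 25 mM Hepes with 0.01% albumin, 15 min pre-incubation then 60 min at 30 °C; IC50 derived from % inhibition.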

The IC50 is the concentration that gives 50% inhibition.

Regarding `Cc1ncccc1O[C@H]1CO[C@H]2[C@@H]1OC[C@@H]2NC(=O)NC1(c2cccc(F)c2)CCCC1` [Example 229, 1-[1-(3-Fluoro-phenyl)-cyclopentyl]-3-[(3S,3aR,6S,6aS)-6-(2-methyl-pyridin-3-yloxy)-hexahydro-furo[3,2-b]furan-3-yl]-urea], the 50% inhibitory concentration (IC50) was 1160 nM. The value for `Cc1ncccc1OC1COC2C(NC(=O)NC34CC5(C)CC(C)(CC(O)(C5)C3)C4)COC12` [Example 230, 1-((1R,3S,5R,7S)-3-Hydroxy-5,7-dimethyl-adamantan-1-yl)-3-[(3S,3aR,6S,6aS)-6-(2-methyl-pyridin-3-yloxy)-hexahydro-furo[3,2-b]furan-3-yl]-urea] was 19 nM; that for `Cc1ncccc1OC1COC2C(NC(=O)NC3CC4CCC3(C)C4(C)C)COC12` [Example 231, 1-[(2R,3aS,5S,6S)-6-(2-Methyl-pyridin-3-yloxy)-hexahydro-furo[3,2-b]furan-3-yl]-3-((1R,4R)-1,7,7-trimethyl-bicyclo[2.2.1]hept-2-yl)-urea] was 10 nM. As for `Cc1ncccc1O[C@H]1CO[C@H]2[C@@H]1OC[C@@H]2NC(=O)NC(C)(C)C(F)(F)F` [Example 232, 1-[(3S,3aR,6S,6aS)-6-(2-Methyl-pyridin-3-yloxy)-hexahydro-furo[3,2-b]furan-3-yl]-3-(2,2,2-trifluoro-1,1-dimethyl-ethyl)-urea], the IC50 is 268 nM. The value for `Cc1ncccc1O[C@H]1CO[C@H]2[C@@H]1OC[C@@H]2NC(=O)NC(C)(C)c1cccnc1` [Example 233, 1-(1-Methyl-1-pyridin-3-yl-ethyl)-3-[(3S,3aR,6S,6aS)-6-(2-methyl-pyridin-3-yloxy)-hexahydro-furo[3,2-b]furan-3-yl]-urea] was 3560 nM. The value for `Cc1ncccc1O[C@H]1CO[C@H]2[C@@H]1OC[C@@H]2NC(=O)NC(C)c1c(C)nn(C)c1C` (stereo partly drawn) [Example 234, 1-[(3S,3aR,6S,6aS)-6-(2-Methyl-pyridin-3-yloxy)-hexahydro-furo[3,2-b]furan-3-yl]-3-[1-(1,3,5-trimethyl-1H-pyrazol-4-yl)-ethyl]-urea] was 172 nM; that for `Cc1ncccc1O[C@H]1CO[C@H]2[C@@H]1OC[C@@H]2NC(=O)NCCC1CCCCO1` (stereo partly drawn) [Example 235, 1-[(3S,3aR,6S,6aS)-6-(2-Methyl-pyridin-3-yloxy)-hexahydro-furo[3,2-b]furan-3-yl]-3-[2-(tetrahydro-pyran-2-yl)-ethyl]-urea] was 86 nM; that for `Cc1ncccc1O[C@H]1CO[C@H]2[C@@H]1OC[C@@H]2NC(=O)NCCN1CCCC1=O` [Example 236, 1-[(3S,3aR,6S,6aS)-6-(2-Methyl-pyridin-3-yloxy)-hexahydro-furo[3,2-b]furan-3-yl]-3-[2-(2-oxo-pyrrolidin-1-yl)-ethyl]-urea] was 3840 nM. For `COC[C@@H](NC(=O)N[C@H]1CO[C@H]2[C@@H]1OC[C@@H]2Oc1cccnc1C)c1ccccc1` [Example 237, 1-((S)-2-Methoxy-1-phenyl-ethyl)-3-[(3S,3aR,6S,6aS)-6-(2-methyl-pyridin-3-yloxy)-hexahydro-furo[3,2-b]furan-3-yl]-urea], the IC50 came to 177 nM. In the case of `Cc1ncccc1O[C@H]1CO[C@H]2[C@@H]1OC[C@@H]2NC(=O)NC1(c2cccnc2)CC1` [Example 238, 1-[(3S,3aR,6S,6aS)-6-(2-Methyl-pyridin-3-yloxy)-hexahydro-furo[3,2-b]furan-3-yl]-3-(1-pyridin-3-yl-cyclopropyl)-urea], the IC50 was determined as 2060 nM.

Take `Cc1ncccc1O[C@H]1CO[C@H]2[C@@H]1OC[C@@H]2NC(=O)NCC1C[C@@H]2CC[C@H]1O2` (stereo partly drawn) [Example 239, 1-[(3S,3aR,6S,6aS)-6-(2-Methyl-pyridin-3-yloxy)-hexahydro-furo[3,2-b]furan-3-yl]-3-[(1R,4S)-1-(7-oxa-bicyclo[2.2.1]hept-2-yl)methyl]-urea]: the IC50 turned out to be 78 nM.

In the case of `Cc1ncccc1O[C@H]1CO[C@H]2[C@@H]1OC[C@@H]2NC(=O)NC1(C)COC1` [Example 240, 1-(3-Methyl-oxetan-3-yl)-3-[(3S,3aR,6S,6aS)-6-(2-methyl-pyridin-3-yloxy)-hexahydro-furo[3,2-b]furan-3-yl]-urea], the IC50 was 3430 nM. The result for `Cc1ncccc1O[C@H]1CO[C@H]2[C@@H]1OC[C@@H]2NC(=O)NC(C)(C)C1CCCCC1` [Example 241, 1-(1-Cyclohexyl-1-methyl-ethyl)-3-[(3S,3aR,6S,6aS)-6-(2-methyl-pyridin-3-yloxy)-hexahydro-furo[3,2-b]furan-3-yl]-urea] reads 117 nM; that for `Cc1ncccc1OC1COC2C(NC(=O)NCC3CCCCC3(C)O)COC12` [Example 242, 1-((1R,2R)-2-Hydroxy-2-methyl-cyclohexylmethyl)-3-[(3S,3aR,6S,-6aS)-6-(2-methyl-pyridin-3-yloxy)-hexahydro-furo[3,2-b]furan-3-yl]-urea], 37 nM.

Consider `Cc1ncccc1O[C@H]1CO[C@H]2[C@@H]1OC[C@@H]2NC(=O)NCCCn1nc(C(F)(F)F)cc1C` [Example 243, 1-[(3S,3aR,6S,6aS)-6-(2-Methyl-pyridin-3-yloxy)-hexahydro-furo[3,2-b]furan-3-yl]-3-[3-(5-methyl-3-tri-fluoromethyl-pyrazol-1-yl)-propyl]-urea], for which the IC50 was found to be 41 nM. The value for `Cc1ncccc1O[C@H]1CO[C@H]2[C@@H]1OC[C@@H]2NC(=O)NC(C)CN1CCCC1=O` (stereo partly drawn) [Example 244, 1-[1-Methyl-2-(2-oxo-pyrrolidin-1-yl)-ethyl]-3-[(3S,3aR,6S,6aS)-6-(2-methyl-pyridin-3-yloxy)-hexahydro-furo[3,2-b]furan-3-yl]-urea] was 577 nM; that for `Cc1ncccc1O[C@H]1CO[C@H]2[C@@H]1OC[C@@H]2NC(=O)NC1CCC(=O)N(C)C1` (stereo partly drawn) [Example 245, 1-(1-Methyl-6-oxo-piperidin-3-yl)-3-[(3S,3aR,6S,6aS)-6-(2-methyl-pyridin-3-yloxy)-hexahydro-furo[3,2-b]furan-3-yl]-urea] was 825 nM; that for `Cc1ncccc1O[C@H]1CO[C@H]2[C@@H]1OC[C@@H]2NC(=O)NC1CC(=O)N(C(C)C)C1` (stereo partly drawn) [Example 246, 1-(1-Isopropyl-5-oxo-pyrrolidin-3-yl)-3-[(3S,3aR,6S,6aS)-6-(2-methyl-pyridin-3-yloxy)-hexahydro-furo[3,2-b]furan-3-yl]-urea] was 317 nM. Consider `Cc1ncccc1O[C@H]1CO[C@H]2[C@@H]1OC[C@@H]2NC(=O)NC1CC(=O)N(c2ccccc2)C1` (stereo partly drawn) [Example 247, 1-[(3S,3aR,6S,6aS)-6-(2-Methyl-pyridin-3-yloxy)-hexahydro-furo[3,2-b]furan-3-yl]-3-(5-oxo-1-phenyl-pyrrolidin-3-yl)-urea], for which the IC50 turned out to be 65 nM. The value for `Cc1ncccc1O[C@H]1CO[C@H]2[C@@H]1OC[C@@H]2NC(=O)NC1(C#N)CCOCC1` [Example 248, 1-(4-Cyano-tetrahydro-pyran-4-yl)-3-[(3S,3aR,6S,6aS)-6-(2-methyl-pyridin-3-yloxy)-hexahydro-furo[3,2-b]furan-3-yl]-urea] was 3500 nM; that for `Cc1ncccc1O[C@H]1CO[C@H]2[C@@H]1OC[C@@H]2NC(=O)NC1(C)CCCCC1` [Example 249, 1-(1-Methyl-cyclohexyl)-3-[(3S,3aR,6S,6aS)-6-(2-methyl-pyridin-3-yloxy)-hexahydro-furo[3,2-b]furan-3-yl]-urea] was 73 nM; that for `Cc1ncccc1O[C@H]1CO[C@H]2[C@@H]1OC[C@@H]2NC(=O)NC(C)(C)c1ccncc1` [Example 250, 1-(1-Methyl-1-pyridin-4-yl-ethyl)-3-[(3S,3aR,6S,6aS)-6-(2-methyl-pyridin-3-yloxy)-hexahydro-furo[3,2-b]furan-3-yl]-urea] was 3120 nM. The result for `Cc1ncccc1O[C@H]1CO[C@H]2[C@@H]1OC[C@@H]2NC(=O)NCCN1CCCCC1=O` [Example 251, 1-[(3S,3aR,6S,6aS)-6-(2-Methyl-pyridin-3-yloxy)-hexahydro-furo[3,2-b]furan-3-yl]-3-[2-(2-oxo-piperidin-1-yl)-ethyl]-urea] reads 1560 nM. The result for `Cc1ncccc1O[C@H]1CO[C@H]2[C@@H]1OC[C@@H]2NC(=O)NC1CCN(C)C1=O` (stereo partly drawn) [Example 252, 1-(1-Methyl-2-oxo-pyrrolidin-3-yl)-3-[(3S,3aR,6S,6aS)-6-(2-methyl-pyridin-3-yloxy)-hexahydro-furo[3,2-b]furan-3-yl]-urea] reads 3520 nM; that for `Cc1ncccc1O[C@H]1CO[C@H]2[C@@H]1OC[C@@H]2NC(=O)NCC1CC(=O)N(C(C)C)C1` (stereo partly drawn) [Example 253, 1-(1-Isopropyl-5-oxo-pyrrolidin-3-ylmethyl)-3-[(3S,3aR,6S,6aS)-6-(2-methyl-pyridin-3-yloxy)-hexahydro-furo[3,2-b]furan-3-yl]-urea], 792 nM.

As to `CCN1CC(CNC(=O)N[C@H]2CO[C@H]3[C@@H]2OC[C@@H]3Oc2cccnc2C)CC1=O` (stereo partly drawn) [Example 254, 1-(1-Ethyl-5-oxo-pyrrolidin-3-ylmethyl)-3-[(3S,3aR,6S,6aS)-6-(2-methyl-pyridin-3-yloxy)-hexahydro-furo[3,2-b]furan-3-yl]-urea], the IC50 amounted to 882 nM.

Take `Cc1ncccc1O[C@H]1CO[C@H]2[C@@H]1OC[C@@H]2NC(=O)NCC1CCC(=O)N1C` (stereo partly drawn) [Example 255, 1-(1-Methyl-5-oxo-pyrrolidin-2-ylmethyl)-3-[(3S,3aR,6S,6aS)-6-(2-methyl-pyridin-3-yloxy)-hexahydro-furo[3,2-b]furan-3-yl]-urea]: the IC50 was 545 nM.
